Molecules are shown by their SMILES.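 Grown in 96-well plates, cells were treated for 48 hours with each compound at five concentrations. Insufficient inhibition: endpoint recorded as highest concentration tested. GI50 = concentration required for 50% inhibition of growth. At the TGI there is no net growth.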 Bounds are passed on as bounds.

Among the test systems are DU-145 prostate; EKVX NSCLC; HL-60(TB) leukemia; NCI-H226 lung; NCI-H23 lung; OVCAR-8 ovarian; RXF 393 renal; SK-OV-3 ovarian; UACC-62 melanoma; UO-31 renal.
What all share (experiment): NCI tumour cell line growth inhibition, 48 h

Consider `Oc1c(Cl)cc(Cl)c(Cl)c1CNCCNCc1c(O)c(Cl)cc(Cl)c1Cl`, for which the GI50 is 2.09 µM with DU-145 prostate; 1.32 µM in the experiment on EKVX NSCLC; 0.63 µM with HL-60(TB) leukemia; 4.1 µM in the experiment with NCI-H226 lung; 1.42 µM in the experiment on NCI-H23 lung; 0.911 µM in the experiment with OVCAR-8 ovarian. In addition, the GI50 with RXF 393 renal was 1.41 µM; with SK-OV-3 ovarian, 1.48 µM; in the experiment with UACC-62 melanoma it was 0.917 µM; with UO-31 renal, 0.625 µM. For the same molecule, the TGI amounted to 12.6 µM in the experiment on DU-145 prostate; 10.2 µM in the experiment with EKVX NSCLC; 2.84 µM in the experiment with HL-60(TB) leukemia; 18.1 µM in the experiment with NCI-H226 lung; 9.08 µM in the experiment on NCI-H23 lung; 7.72 µM with OVCAR-8 ovarian. For the same molecule, the TGI in the experiment with RXF 393 renal stood at 6.74 µM; with SK-OV-3 ovarian it was 7.7 µM; in the experiment with UACC-62 melanoma it was 5.45 µM; with UO-31 renal, 6.42 µM.
Regarding `CCc1ccc(Oc2c(-c3ccc(OCc4ccc(Cl)cc4)cc3O)n[nH]c2C(F)(F)F)cc1`, the GI50 with DU-145 prostate is 2.64 µM; in the experiment with EKVX NSCLC it was 1.89 µM; in the experiment with HL-60(TB) leukemia, 2.41 µM; with NCI-H226 lung, 2.11 µM; in the experiment on NCI-H23 lung, 1.67 µM; with OVCAR-8 ovarian it was 2.52 µM. The GI50 was 1.65 µM with RXF 393 renal, 2.43 µM with SK-OV-3 ovarian, 1.8 µM in the experiment on UACC-62 melanoma and 1.68 µM in the experiment with UO-31 renal. Moreover, the TGI worked out at 7.44 µM in the experiment with DU-145 prostate; 4.34 µM with EKVX NSCLC; 4.86 µM in the experiment with HL-60(TB) leukemia; 5.26 µM in the experiment on NCI-H226 lung; 3.35 µM in the experiment with NCI-H23 lung; 5.87 µM with OVCAR-8 ovarian. For the same molecule, the TGI in the experiment with RXF 393 renal worked out at 3.16 µM; with SK-OV-3 ovarian, 7.01 µM; in the experiment on UACC-62 melanoma it was 4.81 µM; with UO-31 renal, 3.89 µM.
As for `Cc1nn(CNc2ccccc2C(F)(F)F)c(=S)n1/N=C/c1cccc2cccnc12`, the GI50 is > 100 µM in the experiment on DU-145 prostate; > 100 µM in the experiment with EKVX NSCLC; 40.6 µM with HL-60(TB) leukemia; 56.2 µM in the experiment with NCI-H226 lung; > 100 µM with NCI-H23 lung; > 100 µM in the experiment on OVCAR-8 ovarian. The GI50 was > 100 µM with RXF 393 renal, > 100 µM in the experiment on SK-OV-3 ovarian, 33.8 µM in the experiment with UACC-62 melanoma and > 100 µM in the experiment on UO-31 renal. Also, the TGI in the experiment with DU-145 prostate, in the experiment on EKVX NSCLC, in the experiment on HL-60(TB) leukemia, in the experiment with NCI-H226 lung, with NCI-H23 lung and in the experiment with OVCAR-8 ovarian was > 100 µM in each case. Moreover, the TGI in the experiment with RXF 393 renal, with SK-OV-3 ovarian, in the experiment on UACC-62 melanoma and with UO-31 renal was > 100 µM in each case.
For `Fc1ccc(-c2c(-c3ccncc3)nc3n2CCS3)cc1`, the GI50 with DU-145 prostate, with EKVX NSCLC, in the experiment with HL-60(TB) leukemia, with NCI-H226 lung, in the experiment with NCI-H23 lung and in the experiment with OVCAR-8 ovarian was > 25 µM throughout. In addition, the GI50 in the experiment on RXF 393 renal is > 12.9 µM; in the experiment on SK-OV-3 ovarian it was > 25 µM; in the experiment on UACC-62 melanoma, > 25 µM; in the experiment with UO-31 renal it was > 25 µM. For the same molecule, the TGI in the experiment with DU-145 prostate, in the experiment with EKVX NSCLC, in the experiment on HL-60(TB) leukemia, in the experiment with NCI-H226 lung, in the experiment on NCI-H23 lung and in the experiment on OVCAR-8 ovarian was > 25 µM throughout. Further, the TGI in the experiment on RXF 393 renal, in the experiment on SK-OV-3 ovarian, in the experiment on UACC-62 melanoma and with UO-31 renal was > 25 µM in each case.
As to `COc1ccc(Nc2nc3cc(N)cc(N)c3nc2-c2ccccc2)cc1`, the GI50 with DU-145 prostate is 39.3 µM; with EKVX NSCLC, 26 µM; with HL-60(TB) leukemia, 34.4 µM; in the experiment on NCI-H226 lung it was 23.8 µM; in the experiment with NCI-H23 lung, 12.5 µM; in the experiment on OVCAR-8 ovarian it was 13.9 µM. The GI50 is 10.9 µM in the experiment on RXF 393 renal, 32.8 µM in the experiment with SK-OV-3 ovarian, 16.8 µM in the experiment on UACC-62 melanoma and 16.6 µM in the experiment with UO-31 renal. The TGI is > 100 µM in the experiment on DU-145 prostate; > 100 µM with EKVX NSCLC; > 100 µM with HL-60(TB) leukemia; 98.4 µM in the experiment on NCI-H226 lung; 25.3 µM in the experiment with NCI-H23 lung; 30.6 µM with OVCAR-8 ovarian. Further, the TGI with RXF 393 renal turned out to be 24.2 µM; in the experiment with SK-OV-3 ovarian it was 97.5 µM; with UACC-62 melanoma, 30.5 µM; in the experiment with UO-31 renal it was 34.2 µM.
`C=C(c1ccc(OC)c(/C=C/C(=O)c2ccc3c(c2)OCO3)c1)c1cc(OC)c(OC)c(OC)c1`: the GI50 with DU-145 prostate is 5.54 µM; in the experiment with EKVX NSCLC, 4.67 µM; in the experiment with HL-60(TB) leukemia, 2.67 µM; in the experiment with NCI-H23 lung it was 3.2 µM; in the experiment with OVCAR-8 ovarian it was 2.89 µM; in the experiment with RXF 393 renal it was 1.98 µM. For the same molecule, the GI50 with SK-OV-3 ovarian is 5.07 µM; with UACC-62 melanoma, 1.32 µM; in the experiment on UO-31 renal, 3.1 µM. The TGI is > 100 µM with DU-145 prostate; > 100 µM with EKVX NSCLC; > 100 µM in the experiment on HL-60(TB) leukemia; > 100 µM in the experiment with NCI-H23 lung; 18.2 µM in the experiment with OVCAR-8 ovarian; 5.17 µM in the experiment with RXF 393 renal. For the same molecule, the TGI in the experiment with SK-OV-3 ovarian, in the experiment on UACC-62 melanoma and in the experiment on UO-31 renal was > 100 µM in each case.
On to `COc1ccccc1Nc1cc(O)c2c(=O)cc(-c3ccccc3)oc2c1`, for which the GI50 in the experiment with DU-145 prostate is 4.35 µM; in the experiment with EKVX NSCLC, 4.83 µM; in the experiment on HL-60(TB) leukemia it was 2.79 µM; in the experiment with NCI-H226 lung it was 4.38 µM; with NCI-H23 lung it was 4.22 µM; in the experiment on OVCAR-8 ovarian, 4.65 µM. The GI50 in the experiment with RXF 393 renal is 1.74 µM; with SK-OV-3 ovarian, 3.57 µM; in the experiment with UACC-62 melanoma it was 2.39 µM; in the experiment with UO-31 renal, 3.57 µM. Besides, the TGI with DU-145 prostate was 16.4 µM; with EKVX NSCLC it was 56 µM; in the experiment on HL-60(TB) leukemia, 34.9 µM; in the experiment with NCI-H226 lung it was 28.8 µM; with NCI-H23 lung, 52.6 µM; in the experiment with OVCAR-8 ovarian, > 100 µM. In addition, the TGI in the experiment with RXF 393 renal came out at 5.34 µM; with SK-OV-3 ovarian it was 17.9 µM; in the experiment with UACC-62 melanoma, 12.8 µM; in the experiment with UO-31 renal it was 21.5 µM.

The record behind these values is PubChem BioAssay (NCI).
